Series [1] has as its system Staphylococcus aureus ATCC 29213. Kind of series: MIC, broth microdilution (CLSI). In kind it is cell-based. The conditions noted are these: ATCC29213, S. aureus ATCC 29213, read-out: MIC.
Series [2] has as its system Pseudomonas aeruginosa ATCC 27853. Nature of the series: MIC, broth microdilution (CLSI). Type of series: cell-based. The conditions noted are these: ATCC27853, P. aeruginosa ATCC 27853, read-out: MIC. In general terms: Broth dilution looks for growth in wells or tubes with falling amounts of substance.
Series [3] has as its system macrolide-resistant S. pneumoniae Monza-82. Nature of the series: MIC, broth microdilution (CLSI). The conditions noted are these: Streptococcus pneumoniae. Type of series: cell-based, Streptococcus pneumoniae.
Series [4] deals with Enterococcus faecalis ATCC 29212. Kind of series: MBC determination (plating of MIC wells). In kind it is cell-based. How it is done:
(§1) Plates were incubated at 37 °C in aerobic conditions or in 5% CO2 atmosphere and checked for bacterial growth after 24 h.

The test system of series [5] is fluoroquinolone-resistant S. aureus Monza-FD1. Nature of the series: MBC determination (plating of MIC wells). Conditions: Staphylococcus aureus. In kind it is cell-based. Here is the method:
as §1

Series [6] relates to Staphylococcus aureus ATCC 29213. Nature of the series: MBC determination (plating of MIC wells). In kind it is cell-based. How it is done: as §1
Series [7] deals with methicillin-resistant Staphylococcus aureus (MRSA) Monza-PFI. Kind of series: MBC determination (plating of MIC wells). In kind it is cell-based. Here is the method: as §1
Series [8] relates to Escherichia coli ATCC 25922. Nature of the series: MIC, broth microdilution (CLSI). Type of series: cell-based. The conditions noted are these: ATCC25922, E. coli ATCC 25922, read-out: MIC.
The test system of series [9] is Streptococcus pneumoniae ATCC 49619. Kind of series: MIC, broth microdilution (CLSI). In kind it is cell-based. The conditions noted are these: ATCC49619, S. pneumoniae ATCC 49619, read-out: MIC.
Series [10] concerns methicillin-resistant Staphylococcus aureus (MRSA) Monza-PFI. Nature of the series: MIC, broth microdilution (CLSI). In kind it is cell-based.
The test system of the next series is S. aureus strains. Nature of the series: MIC, summary in text for S. aureus strains. Conditions: Staphylococcus aureus.
The subject of series [11] is influenza A virus strain A/Puerto Rico/8/34 (IAV). Kind of series: Plaque reduction assay (PRA) on MDCK cells. In kind it is cell-based.
Series [12] deals with reference and MRSA S. aureus strains. Also on record: method as in PMID 23024574. The conditions noted are these: low concentration tested; cited from earlier work.
Series [13] deals with Enterococcus faecalis ATCC 29212. Nature of the series: MIC, broth microdilution (CLSI). Type of series: cell-based. The conditions noted are these: ATCC29212, E. faecalis ATCC 29212, read-out: MIC.
In series [14] the test system is fluoroquinolone-resistant S. aureus Monza-FD1. Nature of the series: MIC, broth microdilution (CLSI). Type of series: cell-based, Staphylococcus aureus. Conditions: Staphylococcus aureus.
Series [15] relates to macrolide-resistant S. pneumoniae Monza-82. Nature of the series: MBC determination (plating of MIC wells). Type of series: cell-based, Streptococcus pneumoniae. The conditions noted are these: for MBC: Streptococcus pneumoniae. How it is done: as §1
Another series relates to bacteria tested. Kind of series: Bactericidal activity, whole panel (MBC). The conditions noted are these: most of the bacteria tested. Type of series: cell-based. How it is done:
as §1

The test system of another series is Gram-positive bacteria. Nature of the series: MIC, summary in text for Gram-positive bacteria. The conditions noted are these: majority of Gram-positive bacteria tested (except S. pneumoniae ATCC 49619).
The next series relates to MDCK cells. Kind of series: Cytotoxicity assay (CellTiter-Glo). Conditions: MDCK cells, lowest dose 12.5 µg/mL, 48 h. On the technique in general: Cellular ATP, detected with luciferase, serves as a proxy for viable cell number.
The nature of series [16]: Cytotoxicity assay (CellTiter-Glo). The conditions noted are these: dog.
Description: African green monkey kidney cells (VERO, ATCC-American Type Culture Collection CCL-81) and Madin Darby Canine Kidney cells (MDCK, ATCC® CRL-2936™) were propagated in Dulbecco’s modified Eagle medium (DMEM; Euroclone), supplemented with 10% fetal bovine serum (FBS; Euroclone), 2 mM L-glutamine, 1 mM sodium pyruvate, 100 U/mL penicillin, and 100 μg/mL streptomycin sulfate.
The plates were incubated for 48 h at 37 °C, and then 100 μL of CellTiter-Glo reagent (Promega) was added to lyse the cells and to determine cell viability according to the producer’s instructions.

The MIC is the least concentration at which growth counts as inhibited. As usually defined, the MBC is the smallest concentration meeting the test's criterion for killing. What is called inhibition is the change of the read-out against control, counted positive when it falls. Usually CC50 stands for the concentration giving 50% cytotoxicity. A high value points to lower toxicity to the cells.

≈ marks a conversion by molar mass, not a printed value. Where two headings read alike, the source gives them in different places.

Description for Gram-positive bacteria: Representatives of Gram-positive and Gram-negative bacteria were selected for the antimicrobial susceptibility tests. Three Gram-positive reference strains (Staphylococcus aureus ATCC 29213, Streptococcus pneumoniae ATCC 49619, and Enterococcus faecalis ATCC 29212) and two Gram-negative reference strains (Escherichia coli ATCC 25922 and Pseudomonas aeruginosa ATCC 27853) were used. Furthermore, antibacterial activity of the isolated compounds was also assessed against recently isolated clinical strains, selected and characterized as resistant or multidrug-resistant (MDR), from the MicroMiB collection owned and maintained by the Laboratory of Clinical Microbiology and Virology of the University of Milano-Bicocca, Monza, Italy: a methicillin-resistant Staphylococcus aureus (MRSA) Monza-PFI, a fluoroquinolone-resistant S. aureus Monza-FD1, and a macrolide-resistant S. pneumoniae Monza-82.
MICs were determined following Clinical and Laboratory Standards Institute (CLSI) guidelines for the broth microdilution method [33]. […]
The plates were incubated at 37 °C for 18–24 h. After the incubation, each well was checked for the absence of bacterial pellets and the clearness of the solution; then, the MIC value (μg/mL), defined as the lowest concentration of antimicrobial agent causing visible inhibition of bacterial growth, was determined.

As to `CCC/C=C/C=C/c1c(O)cc(CC=C(C)C)c(O)c1C=O` [Dihydroauroglaucin (4), dihydroauroglaucin], the MIC in series [1] was 128 mg/L (≈ 426 µM); in [2] it was greater than 128 mg/L; in [3] (S. pneumoniae Monza 82 (macrolide-resistant), read-out: MIC) it was 8 mg/L (≈ 26.6 µM); in series [8] it was greater than 128 mg/L; in series [9], greater than 128 mg/L; in series [10] (S. aureus Monza-PFI (MRSA), read-out: MIC), 128 mg/L (≈ 426 µM). In addition, the MIC in the series with S. aureus strains is 128 mg/L (≈ 426 µM); in series [13], 64 mg/L (≈ 213 µM); in [14] (S. aureus Monza-FD1 (fluoroquinolone-resistant), read-out: MIC), 128 mg/L (≈ 426 µM). Moreover, the minimum bactericidal concentration (MBC) is greater than 128 mg/L in series [4] (ATCC29212, E. faecalis ATCC 29212, read-out: MBC); greater than 128 mg/L in series [5] (S. aureus Monza-FD1 (fluoroquinolone-resistant), read-out: MBC); greater than 128 mg/L in [6] (ATCC29213, S. aureus ATCC 29213, read-out: MBC); greater than 128 mg/L in series [7] (S. aureus Monza-PFI (MRSA), read-out: MBC); 32 mg/L (≈ 107 µM) in [15] (S. pneumoniae Monza 82 (macrolide-resistant), read-out: MBC). Also, in series [11], the “inhibition of replication of IAV” value is listed as “completely inhibited”. For the same compound, the inhibition at 25 µg/mL in series [11] (Influenza A virus, MDCK, 48 h, read-out: inhibition of replication of IAV) stood at 100%. The antibacterial activity entry in series [12] was “inactive”. In [15] (S. pneumoniae Monza-82 strain only), the bactericidal activity result is on record as “positive results”.

Consider `C/C=C/C=C/CCc1c(O)cc(CC=C(C)C)c(O)c1C=O` [Isodihydroauroglaucin (6), isodihydroauroglaucin], for which the bactericidal activity result with bacteria tested was “bactericidal activity”. Further, the minimum inhibitory concentration (MIC) in series [1] is 64 mg/L (≈ 213 µM); in series [2], greater than 128 mg/L; in series [3] it was 4 mg/L (≈ 13.3 µM); in [8], greater than 128 mg/L; in series [9] it was greater than 128 mg/L; in [10] (MRSA) it was 64 mg/L (≈ 213 µM). Further, the values for the MIC in series [13] and in series [14] were 64 mg/L (≈ 213 µM) and 32 mg/L (≈ 107 µM), respectively. Besides, the minimal bactericidal concentration (MBC) is greater than 128 mg/L in [4] (ATCC29212); 64 mg/L (≈ 213 µM) in [5]; 128 mg/L (≈ 426 µM) in series [6] (ATCC29213); 128 mg/L (≈ 426 µM) in series [7] (MRSA); 16 mg/L (≈ 53.3 µM) in series [15]. Also, the MIC values range in the series with Gram-positive bacteria fell in the range of 4 to 64 mg/L. Also, the “cell toxicity (not toxic = at least 70% cell viability)” value with MDCK cells is recorded as “toxic”. The same compound showed a CC50 at 48 h in [16] of less than 12.5 mg/L.
